Test results published in US12552783B2, “Modulators of proteolysis and associated methods of use” (Arvinas Operations, Inc., priority 2018, dated 2026).

Target: KRas (Homo sapiens, UniProt P01116, G12C)
Experiment: KRas degradation in SW1573 cells by Western blot, normalized to GAPDH (data of Table 14)
Format: cell-based
Conditions: SW1573 cells
Experimental: Cell Lines, Antibodies, and Reagents. NCI-H2030 (CRL-5914) and SW1573 (CRL-2170) cells were purchased from ATCC. Both cell lines are homozygous for the G12C mutation in KRas. NCI-H2030 cells were cultured in RPMI-1640 medium containing 1% penicillin-streptomycin and 10% fetal bovine serum (FBS). SW1573 cells were cultured in DMEM containing 1% penicillin-streptomycin and 10% FBS. The KRas detection antibody (Cat. No. LS-C175665) was purchased from LifeSpan Biosciences and was used at a dilution of 1:2000. GAPDH was detected using an antibody purchased from Cell Signaling Technology (Cat. No. 5174) and was diluted 1:3000. Secondary anti-mouse and anti-rabbit detection antibodies were purchased from Cell Signaling Technology (Cat. Nos. 7076 and 7074, respectively).
Compound Treatment and Western Blotting of the Data of Table 14. Either NCI-H2030 or SW1573 cells were plated in 12-well plates and allowed to adhere overnight at 37° C. in an incubator containing 5% CO2. The following day, the medium was replaced with the appropriate medium lacking FBS to induce starvation. Cells were returned to the incubator for an additional 24 hours following media exchange. […] Cells were treated with VHL-based compounds for 24 hours and all other compounds for 72 hours. Following treatment, cells were lysed in RIPA buffer (Thermo Fisher Cat. No. 89900) containing phosphatase (Thermo Fisher Cat. No. 1861277) and protease (Thermo Fisher Cat. No. 78429) inhibitor cocktails. Lysates were cleared at 13,000 rpm for 15 minutes and supernatants were assayed for total protein concentration using the Pierce BCA assay system (Thermo Fisher Cat. No. 23225). For each sample, 10 μg total protein was resolved on a 12% Bis-Tris gel and then transferred to a nitrocellulose membrane. After blocking in 3% BSA in TBST (Tris-buffered Saline with 0.1% Tween-20) for 1 hour at room temperature, membranes were probed with the primary antibody (LS Bio Cat. No. LS-C175665) overnight at 4° C. After incubation with the secondary antibody, the following day membranes were visualized using the SuperSignal™ West Femto substrate (Thermo Fisher Cat. No. 34095). The KRas signal in each lane was normalized to GAPDH and percent degradation was either estimated as less than 25% by visual inspection (C in Table 13) or quantitated relative to the DMSO control lane using BIO-RAD Image Lab 5.2.1, and all data was plotted using GraphPad PRISM 6.07.
DC50 is the half-maximal degradation concentration—i.e., the concentration at which 50% degradation is observed. DMax is the maximum degradation efficacy is achieved—i.e., the maximal degradation observed) degradation data.

Compound	DC50 [nM]	Dmax [%]	Percent Degradation at Indicated Concentration (μM) (0.01 μM)	Percent Degradation at Indicated Concentration (μM) (0.03 μM)	Percent Degradation at Indicated Concentration (μM) (0.1 μM)	Percent Degradation at Indicated Concentration (μM) (0.3 μM)	Percent Degradation at Indicated Concentration (μM) (1 μM)
C=CC(=O)N1CCN(c2nc(O[C@H](C)CN3CCC(CN4CCN(CC(=O)N[C@H](C(=O)N5C[C@H](O)C[C@H]5C(=O)N[C@@H](C)c5ccc(-c6scnc6C)cc5)C(C)(C)C)CC4)CC3)nc3c(F)c(-c4cc(O)cc5ccccc45)c(Cl)cc23)CC1 [compound 403, (2S,4R)-1-((2S)-2-(2-(4-((1-((2R)-2-((4-(4-acryloylpiperazin-1-yl)-6-chloro-8-fluoro-7-(3-hydroxynaphthalen-1-yl)quinazolin-2-yl)oxy)propyl)piperidin-4-yl)methyl)piperazin-1-yl)acetamido)-3,3-dimethylbutanoyl)-4-hydroxy-N-((S)-1-(4-(4-methylthiazol-5-yl)phenyl)ethyl)pyrrolidine-2-carboxamide]	< 100	35 to 70	C (Percent Degradation: C ≤ 35)	B (35 < B < 70)	B (35 < B < 70)	B (35 < B < 70)	C (Percent Degradation: C ≤ 35)
C=CC(=O)N1CCN(c2nc(O[C@H](C)CN3CCN(CC4CCN(CC(=O)N[C@H](C(=O)N5C[C@H](O)C[C@H]5C(=O)N[C@@H](C)c5ccc(-c6scnc6C)cc5)C(C)(C)C)CC4)CC3)nc3c(F)c(-c4cc(O)cc5ccccc45)c(Cl)cc23)CC1 [compound 404, (2S,4R)-1-((2S)-2-(2-(4-((4-((2R)-2-((4-(4-acryloylpiperazin-1-yl)-6-chloro-8-fluoro-7-(3-hydroxynaphthalen-1-yl)quinazolin-2-yl)oxy)propyl)piperazin-1-yl)methyl)piperidin-1-yl)acetamido)-3,3-dimethylbutanoyl)-4-hydroxy-N-((S)-1-(4-(4-methylthiazol-5-yl)phenyl)ethyl)pyrrolidine-2-carboxamide]	–	–	–	–	B (35 < B < 70)	A (A > 70)	A (A > 70)
C=CC(=O)N1CCN(c2nc(O[C@H](C)CN3CCC(OCCOCCOCC(=O)N[C@H](C(=O)N4C[C@@H](O)C[C@H]4C(=O)N[C@@H](C)c4ccc(-c5scnc5C)cc4)C(C)(C)C)CC3)nc3c(F)c(-c4cc(O)cc5ccccc45)c(Cl)cc23)CC1 [compound 405, (2S,4S)-1-((2S)-2-(2-(2-(2-((1-((2R)-2-((4-(4-acryloylpiperazin-1-yl)-6-chloro-8-fluoro-7-(3-hydroxynaphthalen-1-yl)quinazolin-2-yl)oxy)propyl)piperidin-4-yl)oxy)ethoxy)ethoxy)acetamido)-3,3-dimethylbutanoyl)-4-hydroxy-N-((S)-1-(4-(4-methylthiazol-5-yl)phenyl)ethyl)pyrrolidine-2-carboxamide]	–	–	–	–	C (Percent Degradation: C ≤ 35)	C (Percent Degradation: C ≤ 35)	C (Percent Degradation: C ≤ 35)
C=CC(=O)N1CCN(c2nc(O[C@H](C)CN3CCC(OCCOCCOCCOCCOCC(=O)N[C@H](C(=O)N4C[C@H](O)C[C@H]4C(=O)N[C@@H](C)c4ccc(-c5scnc5C)cc4)C(C)(C)C)CC3)nc3c2CCN(c2cc(O)cc4ccccc24)C3)CC1 [compound 409]	–	–	–	–	C (Percent Degradation: C ≤ 35)	C (Percent Degradation: C ≤ 35)	C (Percent Degradation: C ≤ 35)
C=CC(=O)N1CCN(c2nc(O[C@H](C)CN3CCC(OCCNc4cccc5c4C(=O)N(C4CCC(=O)NC4=O)C5=O)CC3)nc3c2CCN(c2cc(O)cc4ccccc24)C3)CC1 (stereo partly drawn) [compound 411, 4-((2-((1-((R)-2-((4-(4-acryloylpiperazin-1-yl)-7-(3-hydroxynaphthalen-1-yl)-5,6,7,8-tetrahydropyrido[3,4-d]pyrimidin-2-yl)oxy)propyl)piperidin-4-yl)oxy)ethyl)amino)-2-(2,6-dioxopiperidin-3-yl)isoindoline-1,3-dione]	–	–	–	–	C (Percent Degradation: C ≤ 35)	C (Percent Degradation: C ≤ 35)	C (Percent Degradation: C ≤ 35)
C=CC(=O)N1CCN(c2nc(O[C@H](C)CN3CCC(OCCOCCOCCOCCOCCNc4cccc5c4C(=O)N(C4CCC(=O)NC4=O)C5=O)CC3)nc3c2CCN(c2cc(O)cc4ccccc24)C3)CC1 (stereo partly shown) [compound 415]	–	–	–	–	C (Percent Degradation: C ≤ 35)	C (Percent Degradation: C ≤ 35)	C (Percent Degradation: C ≤ 35)
C=CC(=O)N1CCN(c2nc(O[C@H](C)CN3CCC(OCCOCCOc4ccc5c(c4)C(=O)N(C4CCC(=O)NC4=O)C5=O)CC3)nc3c2CCN(c2cc(O)cc4ccccc24)C3)CC1 (stereo partly drawn) [compound 417, 5-(2-(2-((1-((R)-2-((4-(4-acryloylpiperazin-1-yl)-7-(3-hydroxynaphthalen-1-yl)-5,6,7,8-tetrahydropyrido[3,4-d]pyrimidin-2-yl)oxy)propyl)piperidin-4-yl)oxy)ethoxy)ethoxy)-2-(2,6 dioxopiperidin-3-yl)isoindoline-1,3-dione]	–	–	–	–	C (Percent Degradation: C ≤ 35)	C (Percent Degradation: C ≤ 35)	C (Percent Degradation: C ≤ 35)
C=CC(=O)N1CCN(c2nc(O[C@H](C)CN3CCC(OCCOCCOCCOCCOCCOc4ccc5c(c4)C(=O)N(C4CCC(=O)NC4=O)C5=O)CC3)nc3c2CCN(c2cc(O)cc4ccccc24)C3)CC1 (stereo partly drawn) [compound 420, 5-((14-((1-((R)-2-((4-(4-acryloylpiperazin-1-yl)-7-(3-hydroxynaphthalen-1-yl)-5,6,7,8-tetrahydropyrido[3,4-d]pylimidin-2-yl)oxy)propyl)piperidin-4-yl)oxy)-3,6,9,12-tetraoxatetradecyl)oxy)-2-(2,6-dioxopiperidin-3-yl)isoindoline-1,3-dione]	–	–	–	–	C (Percent Degradation: C ≤ 35)	C (Percent Degradation: C ≤ 35)	C (Percent Degradation: C ≤ 35)
C=CC(=O)N1CCN(c2nc(O[C@H](C)CN3CCC(OCCOc4ccc5c(c4)CN(C4CCC(=O)NC4=O)C5=O)CC3)nc3c2CCN(c2cc(O)cc4ccccc24)C3)CC1 (stereo partly shown) [compound 421]	–	–	–	–	C (Percent Degradation: C ≤ 35)	C (Percent Degradation: C ≤ 35)	C (Percent Degradation: C ≤ 35)
C=CC(=O)N1CCN(c2nc(O[C@H](C)CN3CCC(OCCOCCOCCOCCOc4ccc5c(c4)CN(C4CCC(=O)NC4=O)C5=O)CC3)nc3c2CCN(c2cc(O)cc4ccccc24)C3)CC1 (stereo partly drawn) [compound 424, 3-(5-(2-(2-(2-(2-((1-((R)-2-((4-(4-acryloylpiperazin-1-yl)-7-(3-hydroxynaphthalen-1-yl)-5,6,7,8-tetrahydropyrido[3,4-d]pyrimidin-2-yl)oxy)propyl)piperidin-4-yl)oxy)ethoxy)ethoxy)ethoxy)ethoxy)-1-oxoisoindolin-2-yl)piperidine-2,6-dione]	–	–	–	–	C (Percent Degradation: C ≤ 35)	C (Percent Degradation: C ≤ 35)	C (Percent Degradation: C ≤ 35)
C=CC(=O)N1CCN(c2nc(O[C@H](C)CN3CCC(OCCOCCOCCOCCOCCOc4ccc5c(c4)CN(C4CCC(=O)NC4=O)C5=O)CC3)nc3c2CCN(c2cc(O)cc4ccccc24)C3)CC1 (stereo partly drawn) [compound 425, 3-(5-((14-((1-((R)-2-((4-(4-acryloylpiperazin-1-yl)-7-(3-hydroxynaphthalen-1-yl)-5,6,7,8-tetrahydropyrido[3,4-d]pyrimidin-2-yl)oxy)propyl)piperidin-4-yl)oxy)-3,6,9,12-tetraoxatetradecyl)oxy)-1-oxoisoindolin-2-yl)piperidine-2,6-dione]	–	–	–	–	C (Percent Degradation: C ≤ 35)	C (Percent Degradation: C ≤ 35)	C (Percent Degradation: C ≤ 35)
